Test results taken from ChEMBL document CHEMBL1122661, “Vinylogous amino acid esters: a new class of inactivators for thiol proteases” (J Med Chem, 1984).
Values belong to the molecule of their own block, whether it stands above or below them. Active and inactive are the calls of the source. The calls are words filed in the database; no cut-off is given here. Where a SMILES comes first, the peptide text is derived from it.

Key:
Papain (Carica papaya) [1] = target: T1, Papain (Carica papaya) (UniProt P00784); assay: Pseudo first order rate constant against papain
T1 sequence (whole entry): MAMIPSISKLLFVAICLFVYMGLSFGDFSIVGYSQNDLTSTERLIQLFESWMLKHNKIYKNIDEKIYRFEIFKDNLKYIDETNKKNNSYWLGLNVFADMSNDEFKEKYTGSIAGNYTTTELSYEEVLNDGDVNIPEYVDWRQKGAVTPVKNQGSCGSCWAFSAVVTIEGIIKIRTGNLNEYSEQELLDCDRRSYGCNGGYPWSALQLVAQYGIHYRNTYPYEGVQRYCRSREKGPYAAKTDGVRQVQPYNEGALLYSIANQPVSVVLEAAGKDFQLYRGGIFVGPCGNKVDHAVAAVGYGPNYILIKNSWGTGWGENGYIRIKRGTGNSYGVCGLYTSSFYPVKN

Papain [2] = target: T2, Papain (Carica papaya, UniProt P00784); assay: Inhibitory activity against papain
T2 sequence (P00784 whole entry): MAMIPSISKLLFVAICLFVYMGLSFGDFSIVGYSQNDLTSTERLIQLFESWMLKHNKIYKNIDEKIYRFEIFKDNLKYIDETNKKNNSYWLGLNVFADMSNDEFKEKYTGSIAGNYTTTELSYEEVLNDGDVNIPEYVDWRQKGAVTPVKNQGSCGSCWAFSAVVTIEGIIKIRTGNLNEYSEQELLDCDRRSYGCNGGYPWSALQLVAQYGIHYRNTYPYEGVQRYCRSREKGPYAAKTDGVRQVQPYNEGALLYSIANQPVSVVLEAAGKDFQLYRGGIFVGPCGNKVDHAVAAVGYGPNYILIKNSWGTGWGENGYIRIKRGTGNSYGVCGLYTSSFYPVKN

[3] = Inhibition of hydrolysis of Z-Gly-NP by administration of the 1 uM compound; Markedly inhibited
Papain [4] = target: T2, Papain; assay: Inhibitory activity against papain; Weak competitive inhibitor
Papain (Carica papaya) [5] = target: T1, Papain (Carica papaya); assay: Inhibitory activity against papain; No detectab inactivation
[6] = Inhibition of hydrolysis of Z-Gly-NPby administration of the compound
[7] = substrate: O=C(O)CNC(=O)OCc1ccccc1; assay: Papain-catalyzed hydrolysis was expressed as Km

Molecule: COC(=O)/C=C/CNC(=O)C(Cc1ccccc1)NC(C)=O (stereo not drawn)
- K2 (Papain (Carica papaya) [1]): 0.00182 s⁻¹
- Ki (Papain [2]): 0.026 mM
- inhibition [3]: Markedly inhibited

Molecule: COC(=O)CCCNC(=O)C(Cc1ccccc1)NC(C)=O (stereo not drawn)
- Ki (Papain [4]): > 5 mM

Molecule: CC(=O)N[C@@H](Cc1ccccc1)C(=O)NCC(N)=O (Ac-Phe-Gly-NH2)
- Ki [6]: 4.7 mM

B1: Papain (Carica papaya), P00784 (protein)
chain: MAMIPSISKLLFVAICLFVYMGLSFGDFSIVGYSQNDLTSTERLIQLFESWMLKHNKIYKNIDEKIYRFEIFKDNLKYIDETNKKNNSYWLGLNVFADMSNDEFKEKYTGSIAGNYTTTELSYEEVLNDGDVNIPEYVDWRQKGAVTPVKNQGSCGSCWAFSAVVTIEGIIKIRTGNLNEYSEQELLDCDRRSYGCNGGYPWSALQLVAQYGIHYRNTYPYEGVQRYCRSREKGPYAAKTDGVRQVQPYNEGALLYSIANQPVSVVLEAAGKDFQLYRGGIFVGPCGNKVDHAVAAVGYGPNYILIKNSWGTGWGENGYIRIKRGTGNSYGVCGLYTSSFYPVKN
- Km [7]: 10.3 µM

Continued, values first:

- inhibition (Papain (Carica papaya) [5]): inactive
Molecule: COC(=O)/C=C/C(Cc1ccccc1)NC(C)=O (stereo not drawn)

- Ki (Papain [4]): > 5 mM
Molecule: C=CCNC(=O)C(Cc1ccccc1)NC(C)=O (stereo not drawn)
